In assay [1] the test system is MTB strains (Beijing family, wild-type parent and rpoB H445D rifampicin-resistant isolate). Format: cell-based, Mycobacterium tuberculosis.
The subject of assay [2] is MTB strains (Haarlem family, wild-type parent and rpoB S450L rifampicin-resistant isolate). Type of assay: cell-based, Mycobacterium tuberculosis.

The text below walks through data of patent publication US20140349320A1, “Using Adaptive Immunity to Detect Drug Resistance” (The Trustees of the University of Pennsylvania, priority 2011, published 2014).

Bounds are passed on as bounds.

In the case of `NC(=O)c1cnccn1` [pyrazinamide], the drug susceptibility result in assay [1] and in assay [2] was “susceptible” throughout.
`CC[C@@H](CO)NCCN[C@@H](CC)CO` [ethambutol]: the drug susceptibility result in assay [1] and in assay [2] was “susceptible” throughout.
With `NNC(=O)c1ccncc1` [isoniazid], the MIC in assay [1] was less than 0.2 mg/L. The drug susceptibility result in assay [1] and in assay [2] was “susceptible” in each case.

The term MIC denotes the least concentration at which growth counts as inhibited.
